{"source": "patent US10010581B2", "about": "“Syndecan peptides and polypeptides and uses thereof” (Wisconsin Alumni Research Foundation, priority 2012, dated 2018)", "key": {"[1]": {"tested_on": "HaCat keratinocytes", "assay": "scratch wound haptotaxis induced by LPA and clustering of α6β4 integrin", "type": "cell-based, human", "conditions": "LPA + α6β4 clustered with mAb 3E1 and secondary antibody, AG825 10 μM, Iressa 1 μM", "description": "FIG. 6A-D. Sdc1 is required for HER2/α6β4-dependent HaCat keratinocyte migration. (FIG. 6A) HaCat keratinocytes deposit laminin 332 (LN332) and migrate upon this using α3β1 and α6β4 integrins to close a scratch wound in the monolayer when stimulated to undergo chemotaxis in response to EGF. Alternatively, migration is induced by clustering the integrin (using mAb 3E1 against the integrin+a secondary antibody to cluster the first antibody and thus the entire complex) in the presence of LPA. This mimics the clustering that occurs when the cells engage LN332 and is referred to as haptotaxis. […] (FIG. 6B) Haptotaxis, stimulated by LPA and clustering of α6β4 integrin as described in FIG. 6A, is blocked by antibody directed against the α3β1 integrin or by BM165 which targets the binding site for α3β1 in LN332. […] (FIG. 6C) The potential roles of Sdc1 or Sdc4 in haptotaxis is tested by silencing their expression, together with attempting to rescue with either wild-type mouse Sdc1 or Sdc4, or mouse mutants unable to engage the β4 cytoplasmic domain (mSdc1ΔC2 or mSdc4ΔC2). Haptotaxis is blocked by silencing endogenous Sdc1, and this cannot be rescued by Sdc1ΔC2 that fails to engage the α6β4 integrin. Silencing Sdc4 also disrupts migration, but this traces to its role in activity of the α3β1 integrin and not a role in engaging the α6β4 integrin, as it can be rescued by mSdc4ΔC2 that fails to associate with the α6β4 integrin. (FIG. 6D) Immunoprecipitation of either native mSdc4 or mSdc4[…]C2 confirms that the mSdc4ΔC2 mutant no longer associates with the α6β4 integrin, but does with the α3β1 integrin. […]\nHaCat or MCF10A cells were grown to confluence on 48 well-plates were starved for 6 hr by serum deprivation followed by introduction of a scratch wound in the monolayer using 200 μl pipette tip. […] Images were acquired using a PlanApo 20 (0.75 numerical aperture) objective and a Photometrics CoolSnap ES camera on a Nikon Eclipse TE2000U microscopy system and wound closure quantified. […]"}, "[2]": {"tested_on": "HaCat keratinocytes or MCF10A mammary epithelial cells", "assay": "competition of LPA-induced haptotactic migration by GST fusion proteins or synthetic peptides (FIG. 10 summary)", "type": "cell-based, human", "conditions": "0.1 to 30 μM, 3 μM LPA", "experimental": "FIGS. 10A-C. Schematic summary of experiments using either recombinant GST fusion proteins or synthetic peptides to disrupt Sdc1-dependent coupling of HER2 to α6β4 integrin necessary for LPA-induced haptotactic migration. GST-fusion proteins or synthetic peptides were added at concentrations ranging from 0.1 to 30 μM to the culture medium of human HaCat keratinocytes or MCF10A mammary epithelial cells in the presence or absence of 3 μM LPA. The ability of the constructs to inhibit the migration of the cells to close a scratch wound in confluent monolayers was determined and expressed as the concentration of inhibitor necessary to cause 50% inhibition of cell migration. (FIG. 10A) Competition using recombinant GST-fusion proteins. GST-Sdc1 fusion proteins bearing truncations or mutations were assessed for their competitive activity. […] (FIG. 10B) Competition with synthetic peptides. Peptides were purchased from commercial sources for testing as a putative synstatin inhibitory peptide (SSTNHER2). […] (FIG. 10C) Schematic representation of the active site in Sdc1. The active site is shown as a juxtamembrane site in the ectodomain of Sdc1. TM is the transmembrane domain and CYTO is the cytoplasmic domain. The sequence of a peptide derived from this site (SSTNHER2) is shown along with its homology across other mammalian Sdc1 species. The human STTNHER2 sequence is SEQ ID NO:23; the homology for STTNHER2 across mammals is SEQ ID NO:24.\nHaCat or MCF10A cells were grown to confluence on 48 well-plates were starved for 6 hr by serum deprivation followed by introduction of a scratch wound in the monolayer using 200 μl pipette tip. Cells were cultured an additional 18 hr in DMEM containing mAb 3E1 (10 μg/ml) and goat anti-mouse IgG (50 μg/ml), EGF (10 ng/ml) or HGF (20 ng/ml) to cause cell migration in the presence or absence of inhibitors. Images were acquired using a PlanApo 20 (0.75 numerical aperture) objective and a Photometrics CoolSnap ES camera on a Nikon Eclipse TE2000U microscopy system and wound closure quantified."}, "[3]": {"tested_on": "HaCat human keratinocytes", "assay": "total cell number, CellTiterGLO assay", "type": "cell-based", "conditions": "single peptide, concentrations as high as 30 μM, 4 or 7 days", "experimental": "FIGS. 11A-F. SSTN treatment of normal (nontransformed) epithelial cells versus carcinoma (transformed) cells. Cells are plated for one day, then treated with either 3-30 μM […] (SSTN-I), 3-30 μM […] (SSTN-E), 3-30 μM SSTNHER2 (SSTN-H) or combinations of the three peptides, each at 10 μM to test their additive effect. […] The treatment times are chosen to reflect only modest effects of the peptides used singly, so that the more pronounced effect of peptides used in combination can still be observed. Treatment for longer times leads to significant cell death observed even with single peptides alone. (FIG. 11A) HaCat human keratinocytes, an example of a normal stratified epithelium, (FIG. 11B) UM-SCC47 cells, a squamous cell carcinoma derived from the tongue of a patient (a stratrified epithelium), (FIG. 11C) SCC25 cells, another squamous cell carcinoma from the tongue of a patient (FIG. 11D) MCF10A cells, a normal human breast epithelium, (FIG. 11E) MDA-MB-468 cells, a triple-negative (TN) breast carcinoma, and (FIG. 11F) SKBr3 cells, a HER2+ human breast carcinoma. Note that the “triple-negative” designation of the MDA-MB-468 carcinoma means the cells are negative for progesterone receptor, estrogen receptor and the HER2 kinase. Thus, they would not be expected to rely on HER2. Indeed, these cells are not affected by SSTNHER2, either alone or when combined with the other peptides. […]"}}, "data": [{"substance": "SSTNHER2: synthetic peptide of human Sdc1 ectodomain amino acids 210-240 (SEQ ID NO:3), inhibits Sdc1 coupling of HER2 to α6β4 integrin (DFTFETSGENTAVVAVEPDRRNQSPVDQGAT; listed as Homo sapiens)", "values": [{"measurement": "haptotaxis (migration to close a scratch wound)", "setting": "[1]", "result": "blocks haptotaxis"}, {"measurement": "competitive (inhibitory) activity on haptotactic migration", "setting": "[2]", "result": "fully active"}, {"measurement": "growth or survival", "setting": "[3]", "result": "no effect"}]}]}
